This is an account of results in ChEMBL document CHEMBL1130814, “Synthesis of 5-thiomannose-containing oligomannoside mimics: binding abilities to concanavalin A” (Bioorg Med Chem Lett, 1998).

The test in a line: Dissociation constant for binding affinity towards Concanavalin A determined by fluorescence anisotropy inhibition assay. On the technique in general: In fluorescence polarisation assays a small probe gives low polarisation when free and higher when bound to something large.
As for `CO[C@H]1O[C@@H](CO[C@H]2O[C@@H](CO)[C@@H](O)[C@H](O)[C@H]2O)[C@@H](O)[C@H](O[C@H]2S[C@@H](CO)[C@@H](O)[C@H](O)[C@H]2O)[C@H]1O`, binding was characterised by a dissociation constant (Kd) of 7 µM. `CO[C@H]1O[C@@H](CO[C@H]2S[C@@H](CO)[C@@H](O)[C@H](O)[C@H]2O)[C@@H](O)[C@H](O[C@H]2O[C@@H](CO)[C@@H](O)[C@H](O)[C@H]2O)[C@H]1O` registered a Kd of 18 µM.

Compound `CO[C@H]1O[C@@H](CO[C@H]2S[C@@H](CO)[C@@H](O)[C@H](O)[C@H]2O)[C@@H](O)[C@H](O)[C@H]1O` had a Kd of 1280 µM. On to `CO[C@H]1O[C@@H](CO[C@H]2O[C@@H](CO)[C@@H](O)[C@H](O)[C@H]2O)[C@@H](O)[C@H](O)[C@H]1O`, for which binding was characterised by a dissociation constant (Kd) of 150 µM. Take `CO[C@H]1O[C@@H](CO)[C@@H](O)[C@H](O[C@H]2S[C@@H](CO)[C@@H](O)[C@H](O)[C@H]2O)[C@H]1O`: the Kd came to 1720 µM. The compound `CO[C@H]1O[C@@H](CO[C@H]2S[C@@H](CO)[C@@H](O)[C@H](O)[C@H]2O)[C@@H](O)[C@H](O[C@H]2S[C@@H](CO)[C@@H](O)[C@H](O)[C@H]2O)[C@H]1O` came in with a Kd of 376 µM.

Consider `CO[C@H]1O[C@@H](CO[C@H]2O[C@@H](CO)[C@@H](O)[C@H](O)[C@H]2O)[C@@H](O)[C@H](O[C@H]2O[C@@H](CO)[C@@H](O)[C@H](O)[C@H]2O)[C@H]1O`, for which binding was characterised by a dissociation constant (Kd) of 3 µM. The compound `CO[C@H]1O[C@@H](CO)[C@@H](O)[C@H](O[C@H]2O[C@@H](CO)[C@@H](O)[C@H](O)[C@H]2O)[C@H]1O` registered a Kd of 49 µM.

As a reminder, the Kd is the concentration at which binding is half-saturated. A lower Kd goes with higher affinity.
